Legend:
[1] = test system: peritoneal exudate cells (macrophages); assay: Induction of oxidative or reductive macrophages by administration, monochlorobimane/ACAS (Example 9); type: in vivo, DBA/2 mice; details: for type of macrophages induced (monochlorobimane, ACAS): Day 1 and Day 2, cells harvested 20 hours later, 20 μg (NAC-OMe)2 or (NAC)2, 10 μg acetylgliotoxin, 2 mg NAC intraperitoneally, 40 μg dexamethasone subcutaneously
Procedure: (§1) This was clarified by harvesting peritoneal exudate cells 20 hours after the completion of the administration, adhering the cells to the plastic surface, then reacting the cells with 10 μM of monochlorobimane at 37° C. for 30 minutes, and analyzing the reaction product with ACAS. The increase in the amounts of oxidative macrophages can easily be determined visually from the fact that almost no reaction product with monochlorobimane is observed, namely, a gray or blue image is provided, and the increase in the amounts of reductive macrophages from the fact that a red or yellow image is provided respectively. […] Meanwhile, the same examination was conducted by harvesting peritoneal exudate cells after 20 hours of the administration of 2 mg of N-acetylcystine (NAC).

NO = NO production from macrophages induced through administration (Example 9, Table 1); type: in vivo, DBA/2 mice; details: LPS 100 ng/ml, IFNγ 100 units/ml
Procedure: A stimulator was added to 1×10^5 MΦ, and the incubation was conducted at 37° C. for 2 days in a CO2 incubator. After the completion of the centrifugation, the culture supernatant was collected.
One hundred microliters of a Griess-Romijn reagent (supplied by Waco Pure Chemical Industries, Ltd.) adjusted to a concentration of 50 mg/ml in distilled water were added to 100 μl of the culture supernatant, and the reaction was conducted at room temperature for 15 minutes. After the completion of reaction, an absorbance of 540 nm was measured. NaNO2 was used as a standard.
as §1
(§2) Thus, the peritoneal exudate adherent cells were incubated in the following manner, and the amounts of NO and IL-12 produced in the culture supernatant were measured. With respect to the amount of IL-6, the amount of IL-6 produced spontaneously in the absence of a stimulator was measured.
(§3) Cells: The peritoneal exudate adherent cells obtained by the stimulation, namely, the macrophages were added to a 96-well microplate in an amount of 1×10^5 cells/200 μl each.
(§4) Medium: Phenol red-free RPMI 1640: 200 μl/well
LPS: Lipopolysaccharide (made by Sigma Co.) (origin: E. coli) 100 ng/ml

IL-6 = IL-6 production from macrophages induced through administration (Example 9, Table 1); type: in vivo, DBA/2 mice; set-up: concentration or dose not given beside the values; details: produced spontaneously in the absence of a stimulator
Procedure: A stimulator was added to 1×10^6 MΦ, and the incubation was conducted at 37° C. for 2 days in a CO2 incubator. After centrifugation, the culture supernatant was collected.
The amount of IL-6 was determined using IL-6 dependent mouse hybridoma MH60 cells (J. Eur. Immunol., vol. 18, p. 951, 1988). One hundred microliters of the culture supernatant were added to 100 μl of the MH60 cell suspension adjusted to 1×10^5 cells/ml in a 10% FCS-containing RPMI medium, and the mixed solution was incubated at 37° C. for 2 days in a CO2 incubator. Subsequently, 10 μl of MTT (supplied by Sigma Co.) solution adjusted to a concentration of 5 mg/ml in the same medium were added thereto, and the reaction was conducted at 37° C. for 5 hours. After the completion of the reaction, the centrifugation was conducted. The supernatant (160 μl) was removed, and 100 μl of a mixture of hydrochloric acid and propanol were added to the residue. The suspension was conducted using a pipetman to dissolve the cells. Immediately after the dissolution, an absorbance of 570 nm was measured with an immunometer (supplied by Bio-Rad).
as §1, §2, §3, §4

[2] = test system: spontaneous onset of insulin-dependent diabetes mellitus; assay: Onset of diabetes mellitus in NOD mice dosed at age 3 to 6 weeks (Example 23); type: in vivo; details: three times per week, nine times; for Frequency (%) of onset of diabetes mellitus, on age 18 weeks: saline 50; for Frequency (%) of onset of diabetes mellitus, on age 22 weeks: saline 80
Procedure: NOD mice purchased from Nippon Clair, Co. were naturally mated together. Among the off spring mice, a colony of NOD mice with a high frequency of the spontaneous onset of insulin-dependent diabetes mellitus was established. Female NOD mice from the colony were used for the present experiment. […] Urine glucose was detected, using Uropaper (BM Test Glucose 5000, manufactured by Yamanouchi Pharmaceuticals, Co. Ltd.). Chemical agents were administered intraperitoneally, unless otherwise stated. […] (NAC)2 and (NAC-OMe)2 were at a single dose of 20 μg/animal; and NAC and GSHOEt were at a single dose of 2 μg/animal; and a single dose of lentinan was 0.1 mg/kg.

[3] = test system: spontaneous onset of insulin-dependent diabetes mellitus; assay: Onset of diabetes mellitus in NOD mice dosed at age 3 to 6 and 9 to 11 weeks (Example 24); type: in vivo; details: doses as in the table line, 15 times in total, judged on week 22, saline 60
Text: NOD mice purchased from Nippon Clair, Co. were naturally mated together. Among the off spring mice, a colony of NOD mice with a high frequency of the spontaneous onset of insulin-dependent diabetes mellitus was established. Female NOD mice from the colony were used for the present experiment. […] Urine glucose was detected, using Uropaper (BM Test Glucose 5000, manufactured by Yamanouchi Pharmaceuticals, Co. Ltd.). The onset was judged on week 22.

[4] = test system: spontaneous onset of insulin-dependent diabetes mellitus; assay: Onset of diabetes mellitus in NOD mice dosed at age 9 to 11 weeks (Example 25); type: in vivo; details: nine times
Text: NOD mice purchased from Nippon Clair, Co. were naturally mated together. Among the off spring mice, a colony of NOD mice with a high frequency of the spontaneous onset of insulin-dependent diabetes mellitus was established. Female NOD mice from the colony were used for the present experiment. Chemical agents were orally or intraperitoneally administered to the NOD mice aged 9 to 11 weeks three times per week, in total nine times; and based on the test results of urine glucose, positive or negative, the onset of diabetes mellitus was followed once per week. Urine glucose was detected, using Uropaper (BM Test Glucose 5000, manufactured by Yamanouchi Pharmaceuticals, Co. Ltd.). The onset was judged on week 22; the doses were the same as in Example 24.

Row | SMILES | type of macrophages induced (monochlorobimane, ACAS) [1] | NO, amount produced relative to that of control group (NO) [%] | IL-6, amount produced relative to that of control group (IL-6) [%] | Frequency (%) of onset of diabetes mellitus, on age 18 weeks ([2]; intraperitoneal) [%] | Frequency (%) of onset of diabetes mellitus, on age 22 weeks ([2]; intraperitoneal) [%] | Frequency (%) of onset of diabetes mellitus, on age 18 weeks ([2]; oral) [%] | Frequency (%) of onset of diabetes mellitus, on age 22 weeks ([2]; oral) [%] | Frequency (%) of onset of diabetes mellitus ([3]; oral) [%] | Frequency (%) of onset of diabetes mellitus ([4]; oral, judged on week 22, doses as in Example 24, saline 67) [%] | Frequency (%) of onset of diabetes mellitus ([4]; route not given, judged on week 22, saline 67) [%] | Frequency (%) of onset of diabetes mellitus ([3]; intraperitoneal) [%] | induction of oxidative macrophages on ACAS ([1]; intraperitoneally 20 μg/0.5 ml/h each, twice a week for three weeks, 9-11 weeks of age) | Frequency (%) of onset of diabetes mellitus ([4]; intraperitoneal, judged on week 22, doses as in Example 24, saline 67) [%]
1 | CC(=O)N[C@@H](CS)C(=O)O [NAC, N-acetylcysteine, reference compound] | reductive macrophages were induced | 172 | 42 | 10 | 20 | 30 | 40 | 40 | 60 | – | – | – | –
2 | CC(=O)N[C@@H](CSSC[C@H](NC(C)=O)C(=O)O)C(=O)O [(NAC)2, N,N′-diacetylcystine] | Oxidative macrophages were induced | 18 | 340 | 60 | 80 | – | – | – | – | 60 | – | – | –
3 | CCOC(=O)CNC(=O)[C@H](CS)NC(=O)CC[C@H](N)C(=O)O [GSH-OEt, glutathione monoethyl ester] | – | – | – | 0 | 5 | – | – | – | – | – | 0 | – | –
4 | COC(=O)[C@H](CSSC[C@H](NC(C)=O)C(=O)OC)NC(C)=O [(NAC-OMe)2, N,N′-diacetylcystine dimethyl ester] | Oxidative macrophages were induced | 12 | 320 | 70 | 80 | – | – | – | – | – | 70 | induction of oxidative macrophages was confirmed | 11
